Assays:
[1] = tested on: PANC-1; experiment: Cytotoxicity against human PANC-1 cells assessed as reduction in cell viability incubated for 48 hrs by MTT assay; type: functional, cell-based; details: PANC-1, 48 h
[2] = tested on: MIA PaCa-2; experiment: Cytotoxicity against human MIA PaCa-2 cells assessed as reduction in cell viability incubated for 48 hrs by MTT assay; type: functional, cell-based; details: MIA PaCa-2, 48 h
[3] = tested on: PC-3; experiment: Cytotoxicity against human PC-3 cells incubated for 48 hrs; type: functional, cell-based; details: PC-3, 48 h
[4] = tested on: BXPC-3; experiment: Cytotoxicity against human BXPC-3 cells assessed as reduction in cell viability incubated for 48 hrs by MTT assay; type: functional, cell-based; details: BXPC-3, 48 h
[5] = tested on: DU-145; experiment: Cytotoxicity against human DU-145 cells incubated for 48 hrs; type: functional, cell-based; details: DU-145, 48 h
[6] = tested on: LNCaP; experiment: Cytotoxicity against human LNCaP cells incubated for 48 hrs; type: functional, cell-based
[7] = Cytotoxicity against MEF cells assessed as reduction in cell viability incubated for 48 hrs by MTT assay; type: toxicity, cell-based; details: mouse

CC(=O)Oc1ccccc1C(=O)/N=C1\[Se]CCN1C(=O)c1ccccc1OC(C)=O
IC50 [1]: 740 nM | IC50 [2]: 3.03 µM | IC50 [3]: 1700 nM | IC50 [4]: 2090 nM | IC50 [5]: 520 nM | IC50 [6]: 2340 nM | IC50 at 48 h [7]: > 50 µM

Reference: ChEMBL document CHEMBL5512666, “Selenization of Small Molecule Drugs: A New Player on the Board” (J Med Chem, 2024)
